Measured values published in US20230357249A1, “ANDROGEN RECEPTOR PROTEIN DEGRADERS WITH A TRICYCLIC CEREBLON LIGAND” (THE REGENTS OF THE UNIVERSITY OF MICHIGAN, priority 2020, published 2023).

Molecular target: T1, AR protein (Homo sapiens, UniProt P10275)
T1 construct: endogenous in cells; host or cells: VCaP
T1 sequence (P10275 1-920): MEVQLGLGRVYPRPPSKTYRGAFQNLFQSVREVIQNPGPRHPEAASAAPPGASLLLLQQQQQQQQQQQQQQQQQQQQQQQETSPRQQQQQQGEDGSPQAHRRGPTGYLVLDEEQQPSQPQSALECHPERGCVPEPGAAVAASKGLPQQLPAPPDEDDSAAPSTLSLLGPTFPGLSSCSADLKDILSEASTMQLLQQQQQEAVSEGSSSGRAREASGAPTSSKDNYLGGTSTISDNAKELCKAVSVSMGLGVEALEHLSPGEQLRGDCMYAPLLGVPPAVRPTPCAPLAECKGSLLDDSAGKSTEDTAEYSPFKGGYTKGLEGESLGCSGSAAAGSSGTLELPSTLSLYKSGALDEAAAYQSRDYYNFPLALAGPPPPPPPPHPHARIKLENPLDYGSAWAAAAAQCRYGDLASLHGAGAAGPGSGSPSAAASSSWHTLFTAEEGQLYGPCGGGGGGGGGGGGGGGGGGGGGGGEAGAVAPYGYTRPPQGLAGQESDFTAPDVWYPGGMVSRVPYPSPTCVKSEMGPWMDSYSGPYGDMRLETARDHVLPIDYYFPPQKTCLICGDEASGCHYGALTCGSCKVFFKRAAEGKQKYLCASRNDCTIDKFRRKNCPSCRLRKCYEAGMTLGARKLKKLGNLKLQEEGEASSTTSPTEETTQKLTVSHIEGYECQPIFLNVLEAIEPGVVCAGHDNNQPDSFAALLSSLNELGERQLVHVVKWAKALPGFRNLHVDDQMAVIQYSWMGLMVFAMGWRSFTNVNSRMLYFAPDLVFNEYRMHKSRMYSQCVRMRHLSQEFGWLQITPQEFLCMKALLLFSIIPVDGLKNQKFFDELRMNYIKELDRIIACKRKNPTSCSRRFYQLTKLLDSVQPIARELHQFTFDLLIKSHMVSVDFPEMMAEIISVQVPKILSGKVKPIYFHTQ
Experiment: AR protein degradation in VCaP cells, Western blotting
Type: cell-based
Set-up: key to AR protein degradation VCap 10 nM / AR protein degradation VCap 100 nM: A: >90% degradation (24 hr treatment); B: >50% degradation but <90% (24 hr treatment); C: >10% degradation but <50% (24 hr treatment); D: No significant degradation (24 hr treatment)
Conditions: 24 hr treatment; for percent AR protein degradation at 0.1 µM: 100 nM
Experimental: The appropriate cell line, e.g., prostate cancer LNCaP, Vcap, or 22RV1 cell line, was treated with Compounds of the Disclosure as indicated. The treated cells were lysed with RIPA buffer. The AR level in the cell lysates was examined by western blotting and a specific AR antibody (ab194196, Abcam, Cambridge, MA 02139) with concentration of 1:20,000. GAPDH was used as a loading control.
Bands were quantified with ImageJ software. The relative numbers of each band obtained from normalization with its corresponding GAPDH level were compared with Prism 8 software. The DC50 values were produced from Prism 8, and the DC90 values were calculated with an equation=Bottom + (Top-Bottom)/(1+10^((LogEC50-X)*HillSlope) based on DC50 and Hillslope values.
The amount of AR protein degradation in VCap and MDA-MB-453 cells caused by representative Compounds of the Disclosure at the concentrations indicated is presented in Table 4, FIG. 1, and FIG. 2.

## N#Cc1ccc(O[C@H]2CC[C@H](N3Cc4cc(C(=O)N5CCC(CN6Cc7cc8c(cc7C6)C(=O)N(C6CCC(=O)NC6=O)C8=O)CC5)ccc4C3=O)CC2)cc1Cl (some centres unmarked) [compound 174]
10 nM
  AR protein degradation VCap 10 nM: D
  percent AR protein degradation at 0.1 µM: > 90%

## CC1(C)C(Nc2ccc(C(=O)N3CCC(CN4Cc5cc6c(cc5C4)C(=O)N(C4CCC(=O)NC4=O)C6=O)CC3)cc2)C(C)(C)C1Oc1ccc(C#N)c(Cl)c1 (centres unmarked) [compound 175]
10 nM
  percent AR protein degradation at 0.01 µM: 10 to 50%
  percent AR protein degradation at 0.1 µM: 50 to 90%

## CC1(C)C(Nc2ccc(C(=O)N3CCC(N4Cc5cc6c(cc5C4)C(=O)N(C4CCC(=O)NC4=O)C6=O)CC3)cc2)C(C)(C)C1Oc1ccc(C#N)c(Cl)c1 (centres unmarked) [compound 176]
10 nM
  percent AR protein degradation at 0.01 µM: 10 to 50%
  percent AR protein degradation at 0.1 µM: > 90%

## CN(c1ccc(C#N)c(Cl)c1)[C@H]1CC[C@H](NC(=O)c2ccc(CN3CCC(N4Cc5cc6c(cc5C4)C(=O)N(C4CCC(=O)NC4=O)C6=O)CC3)cc2)CC1 (some centres unmarked) [compound 278]
10 nM
  percent AR protein degradation at 0.01 µM: > 90%
  percent AR protein degradation at 0.1 µM: > 90%

## CN(c1ccc(C#N)c(Cl)c1)[C@H]1CC[C@H](NC(=O)c2ccc([C@H]3CC[C@H](CN4Cc5cc6c(cc5C4)C(=O)N(C4CCC(=O)CC4=O)C6=O)CC3)cc2)CC1 (some centres unmarked) [compound 280]
10 nM
  percent AR protein degradation at 0.01 µM: > 90%
  percent AR protein degradation at 0.1 µM: > 90%

## CN(c1ccc(C#N)c(Cl)c1)[C@H]1CC[C@H](NC(=O)c2ccc(O[C@H]3CC[C@H](N4Cc5cc6c(cc5C4)C(=O)N(C4CCC(=O)NC4=O)C6=O)CC3)cc2)CC1 (some centres unmarked) [compound 281, N-((1r,4r)-4-((3-Chloro-4-Cyanophenyl)(Methyl)Amino)Cyclohexyl)-4-(((1r,4r)-4-(6-(2,6-Dioxopiperidin-3-Yl)-5,7-Dioxo-3,5,6,7-Tetrahydropyrrolo[3,4-F]Isoindol-2(1h)-Yl)Cyclohexyl)Oxy)Benzamide]
10 nM
  percent AR protein degradation at 0.01 µM: > 90%
  percent AR protein degradation at 0.1 µM: > 90%

## CN(c1ccc(C#N)c(Cl)c1)[C@H]1CC[C@H](NC(=O)c2ccc([C@H]3CC[C@H](CN4Cc5cc6c(cc5C4)C(=O)N(C4CCC(=O)NC4=O)C6=O)CC3)cn2)CC1 (some centres unmarked) [compound 313]
10 nM
  percent AR protein degradation at 0.01 µM: > 90%
  percent AR protein degradation at 0.1 µM: > 90%

## CN(c1ccc(C#N)c(Cl)c1)[C@H]1CC[C@H](NC(=O)c2ccc(N3CCC(CN4Cc5cc6c(cc5C4)C(=O)N(C4CCC(=O)NC4=O)C6=O)CC3)nc2)CC1 (some centres unmarked) [compound 323]
10 nM
  percent AR protein degradation at 0.01 µM: > 90%
  percent AR protein degradation at 0.1 µM: > 90%

## CN(c1ccc(C#N)c(Cl)c1)[C@H]1CC[C@H](NC(=O)c2ccc(N3CCC(CN4Cc5cc6c(cc5C4)C(=O)N(C4CCC(=O)NC4=O)C6=O)CC3)cn2)CC1 (some centres unmarked) [compound 324]
10 nM
  percent AR protein degradation at 0.01 µM: > 90%
  percent AR protein degradation at 0.1 µM: > 90%

## CN(c1ccc(C#N)c(Cl)c1)[C@H]1CC[C@H](NC(=O)c2ccc(N3CCC(CN4Cc5cc6c(cc5C4)C(=O)N(C4CCC(=O)NC4=O)C6=O)CC3)nn2)CC1 (some centres unmarked) [compound 325]
10 nM
  percent AR protein degradation at 0.01 µM: > 90%
  percent AR protein degradation at 0.1 µM: > 90%

## CN(c1ccc(C#N)c(Cl)c1)[C@H]1CC[C@H](NC(=O)c2ccc(CN3CCC(C(=O)N4Cc5cc6c(cc5C4)C(=O)N(C4CCC(=O)NC4=O)C6)CC3)cc2)CC1 (some centres unmarked) [compound 326]
10 nM
  percent AR protein degradation at 0.01 µM: > 90%
  percent AR protein degradation at 0.1 µM: > 90%

## CN(c1ccc(C#N)c(Cl)c1)[C@H]1CC[C@H](NC(=O)c2ccc(N3CCN(CC(=O)N4Cc5cc6c(cc5C4)C(=O)N(C4CCC(=O)NC4=O)C6)CC3)cc2)CC1 (some centres unmarked) [compound 327, N-((1r,4r)-4-((3-Chloro-4-Cyanophenyl)(Methyl)Amino)Cyclohexyl)-4-(4-(2-(6-(2,6-Dioxopiperidin-3-Yl)-5-Oxo-3,5,6,7-Tetrahydropyrrolo[3,4-F]Isoindol-2(1h)-Yl)-2-Oxoethyl)Piperazin-1-Yl)Benzamide]
10 nM
  percent AR protein degradation at 0.01 µM: > 90%
  percent AR protein degradation at 0.1 µM: > 90%

## CN(c1ccc(C#N)c(Cl)c1)[C@H]1CC[C@H](NC(=O)c2ccc(C3CCN(CC(=O)N4Cc5cc6c(cc5C4)C(=O)N(C4CCC(=O)NC4=O)C6)CC3)cc2)CC1 (some centres unmarked) [compound 328, N-((1r,4r)-4-((3-Chloro-4-Cyanophenyl)(Methyl)Amino)Cyclohexyl)-4-(1-(2-(6-(2,6-Dioxopiperidin-3-Yl)-5-Oxo-3,5,6,7-Tetrahydropyrrolo[3,4-F]Isoindol-2(1h)-Yl)-2-Oxoethyl)Piperidin-4-Yl)Benzamide]
10 nM
  percent AR protein degradation at 0.01 µM: > 90%
  percent AR protein degradation at 0.1 µM: > 90%
